Measured values reported in patent US6914045B2, “Glycopeptide antibiotics” (Wyeth Holdings Corporation, priority 2001, dated 2005).
Values after ≈ are worked out from the molar mass of the structure shown. Each block holds one compound with its values, some of them ahead of it.

What was measured:
Test in all cases: in vitro antibacterial evaluation, MIC by broth dilution
Assay type in all cases: cell-based
[1] = tested on: Enterococcus sp.; conditions: broth dilution, 18 hours at 35° C.
Outline: (§1)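 Test organisms, which included recent clinical isolates resistant to methicillin, penicillin and/or vancomycin, were inoculated at 5×10^5 CFU/mL into Muller-Hinton II […] containing antibiotic at 64-0.06 μg/mL. Minimum inhibitory concentrations were then read as the lowest level inhibiting growth.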

[2] = tested on: Escherichia coli; conditions: 18 hours at 35° C.; for MIC Escherichia coli (ATCC 25922): strain ATCC 25922
Outline: as §1

[3] = tested on: Staphylococcus sp.; conditions: broth dilution, 18 hours at 35° C.
Outline: as §1

[4] = tested on: Streptococcus sp.; conditions: broth dilution, 18 hours at 35° C.
Outline: as §1

[5] = Enterococcus faecalis (ATCC 29212)
[6] = Enterococcus faecalis (GC 2242)
[7] = Enterococcus faecalis (GC 4552)
[8] = Enterococcus faecalis (GC 4553)
[9] = Enterococcus faecalis (GC 4554)
[10] = inoculum 5×10^5 CFU/mL, strain GC 1131
[11] = Streptococcus agalactiae (GC 4564)
[12] = Streptococcus pneumoniae (GC 4565)

MIC Enterococcus avium (GC 4558) ([1]; Enterococcus avium (GC 4558)): 2 µg/mL (≈ 1.39 µM)
MIC Enterococcus faecalis (ATCC 29212) [1, 5]: 2 µg/mL (≈ 1.39 µM)
MIC Enterococcus faecalis (GC 2242) [1, 6]: 4 µg/mL (≈ 2.77 µM)
MIC Enterococcus faecalis (GC 2691) ([1]; Enterococcus faecalis (GC 2691)): 4 µg/mL (≈ 2.77 µM)
MIC Enterococcus faecalis (GC 3059) ([1]; Enterococcus faecalis (GC 3059)): 2 µg/mL (≈ 1.39 µM)
MIC Enterococcus faecalis (GC 4552) [1, 7]: 4 µg/mL (≈ 2.77 µM)
MIC Enterococcus faecalis (GC 4553) [1, 8]: 4 µg/mL (≈ 2.77 µM)
MIC Enterococcus faecalis (GC 4554) [1, 9]: 4 µg/mL (≈ 2.77 µM)
MIC Enterococcus faecalis (GC 6189) ([1]; Enterococcus faecalis (GC 6189)): 2 µg/mL (≈ 1.39 µM)
MIC Enterococcus faecium (GC 2243) ([1]; Enterococcus faecium (GC 2243)): 4 µg/mL (≈ 2.77 µM)
MIC Enterococcus faecium (GC 4556) ([1]; Enterococcus faecium (GC 4556)): 4 µg/mL (≈ 2.77 µM)
MIC Enterococcus faecium (GC 4557) ([1]; Enterococcus faecium (GC 4557)): 4 µg/mL (≈ 2.77 µM)
MIC Enterococcus faecalis (ATCC 29212) ([1]; strain ATCC 29212): 2 µg/mL (≈ 1.39 µM)
MIC Enterococcus faecalis (GC 2242) ([1]; strain GC 2242): 4 µg/mL (≈ 2.77 µM)
MIC Enterococcus faecium (GC 2243) ([1]; strain GC 2243): 4 µg/mL (≈ 2.77 µM)
MIC Enterococcus faecalis (GC 2691) ([1]; strain GC 2691): 4 µg/mL (≈ 2.77 µM)
MIC Enterococcus faecalis (GC 3059) ([1]; strain GC 3059): 2 µg/mL (≈ 1.39 µM)
MIC Enterococcus faecalis (GC 4552) ([1]; strain GC 4552): 4 µg/mL (≈ 2.77 µM)
MIC Enterococcus faecalis (GC 4553) ([1]; strain GC 4553): 4 µg/mL (≈ 2.77 µM)
MIC Enterococcus faecalis (GC 4554) ([1]; strain GC 4554): 4 µg/mL (≈ 2.77 µM)
MIC Enterococcus faecium (GC 4556) ([1]; strain GC 4556): 4 µg/mL (≈ 2.77 µM)
MIC Enterococcus faecium (GC 4557) ([1]; strain GC 4557): 4 µg/mL (≈ 2.77 µM)
MIC Enterococcus avium (GC 4558) ([1]; strain GC 4558): 2 µg/mL (≈ 1.39 µM)
MIC Enterococcus faecalis (GC 6189) ([1]; strain GC 6189): 2 µg/mL (≈ 1.39 µM)
MIC Escherichia coli (ATCC 25922) [2]: 64 µg/mL (≈ 44.4 µM)
MIC Escherichia coli (GC 4559) ([2]; strain GC 4559): 64 µg/mL (≈ 44.4 µM)
MIC Escherichia coli (GC 4560) ([2]; strain GC 4560): 4 µg/mL (≈ 2.77 µM)
MIC Staphylococcus aureus (ATCC 29213) [3]: 2 µg/mL (≈ 1.39 µM)
MIC Staphylococcus aureus (GC 1131) [3]: 4 µg/mL (≈ 2.77 µM)
MIC Staphylococcus aureus (GC 3051) [3]: 2 µg/mL (≈ 1.39 µM)
MIC Staphylococcus aureus (GC 3053) [3]: 2 µg/mL (≈ 1.39 µM)
MIC Staphylococcus aureus (GC 4541) [3]: 4 µg/mL (≈ 2.77 µM)
MIC Staphylococcus aureus (GC 4542) [3]: 2 µg/mL (≈ 1.39 µM)
MIC Staphylococcus aureus (GC 4544) [3]: 4 µg/mL (≈ 2.77 µM)
MIC Staphylococcus aureus (GC 4545) [3]: 2 µg/mL (≈ 1.39 µM)
MIC Staphylococcus aureus (GC 1131) [3, 10]: 4 µg/mL (≈ 2.77 µM)
MIC Staphylococcus aureus (ATCC 29213) ([3]; strain ATCC 29213): 2 µg/mL (≈ 1.39 µM)
MIC Staphylococcus aureus (GC 3051) ([3]; strain GC 3051): 2 µg/mL (≈ 1.39 µM)
MIC Staphylococcus aureus (GC 3053) ([3]; strain GC 3053): 2 µg/mL (≈ 1.39 µM)
MIC Staphylococcus aureus (GC 4541) ([3]; strain GC 4541): 4 µg/mL (≈ 2.77 µM)
MIC Staphylococcus aureus (GC 4542) ([3]; strain GC 4542): 2 µg/mL (≈ 1.39 µM)
MIC Staphylococcus aureus-SMITH (GC 4543) ([3]; strain GC 4543): 2 µg/mL (≈ 1.39 µM)
MIC Staphylococcus aureus (GC 4544) ([3]; strain GC 4544): 4 µg/mL (≈ 2.77 µM)
MIC Staphylococcus aureus (GC 4545) ([3]; strain GC 4545): 2 µg/mL (≈ 1.39 µM)
MIC Coagulase Negative Staphylococcus (GC 4547) ([3]; strain GC 4547): 4 µg/mL (≈ 2.77 µM)
MIC Coagulase Negative Staphylococcus (GC 4548) ([3]; strain GC 4548): 2 µg/mL (≈ 1.39 µM)
MIC Coagulase Negative Staphylococcus (GC 4549) ([3]; strain GC 4549): 1 µg/mL (≈ 0.694 µM)
MIC Coagulase Negative Staphylococcus (GC 4551) ([3]; strain GC 4551): 2 µg/mL (≈ 1.39 µM)
MIC Staphylococcus aureus-SMITH (GC 4543) ([3]; strain SMITH GC 4543): 2 µg/mL (≈ 1.39 µM)
MIC Streptococcus agalactiae (GC 4564) [4, 11]: <0.12 µg/mL
MIC Streptococcus pneumoniae (ATCC 6301) ([4]; Streptococcus pneumoniae (ATCC 6301)): <0.12 µg/mL
MIC Streptococcus pneumoniae (GC 1894) ([4]; Streptococcus pneumoniae (GC 1894)): <0.12 µg/mL
MIC Streptococcus pneumoniae (GC 4565) [4, 12]: <0.12 µg/mL
MIC Streptococcus pyogenes (GC 4563) ([4]; Streptococcus pyogenes (GC 4563)): 0.25 µg/mL (≈ 0.173 µM)
MIC Streptococcus pneumoniae (ATCC 6301) ([4]; strain ATCC 6301): <0.12 µg/mL
MIC Streptococcus pneumoniae (GC 1894) ([4]; strain GC 1894): <0.12 µg/mL
MIC Streptococcus pyogenes (GC 4563) ([4]; strain GC 4563): 0.25 µg/mL (≈ 0.173 µM)
MIC Streptococcus agalactiae (GC 4564) ([4]; strain GC 4564): <0.12 µg/mL
MIC Streptococcus pneumoniae (GC 4565) ([4]; strain GC 4565): <0.12 µg/mL
SMILES: CC(c1ccccc1)C1NC(=O)CNC(=O)C(CO)NC(=O)C(C(O)C2CNC(=N)N2C2OC(CO)C(O)C(O)C2O)NC(=O)C(C(O)C2CNC(=N)N2)NC(=O)C(Cc2ccc(OC3OC(CO)C(OC4OC5COC(C67CC8CC(CC(C8)C6)C7)OC5C(O)C4O)C(O)C3O)cc2)NC1=O (stereo not drawn) [Example 127]
MIC Staphylococcus haemolyticus (GC 4546) ([3]; strain GC 4546): 2 µg/mL (≈ 1.39 µM)

MIC Enterococcus avium (GC 4558) ([1]; Enterococcus avium (GC 4558)): 8 µg/mL (≈ 5.87 µM)
MIC Enterococcus faecalis (ATCC 29212) [1, 5]: 4 µg/mL (≈ 2.93 µM)
MIC Enterococcus faecalis (GC 2242) [1, 6]: 4 µg/mL (≈ 2.93 µM)
MIC Enterococcus faecalis (GC 4552) [1, 7]: 4 µg/mL (≈ 2.93 µM)
MIC Enterococcus faecalis (GC 4553) [1, 8]: 8 µg/mL (≈ 5.87 µM)
MIC Enterococcus faecalis (GC 4554) [1, 9]: 4 µg/mL (≈ 2.93 µM)
MIC Enterococcus faecium (GC 2243) ([1]; Enterococcus faecium (GC 2243)): 8 µg/mL (≈ 5.87 µM)
MIC Enterococcus faecium (GC 4556) ([1]; Enterococcus faecium (GC 4556)): 4 µg/mL (≈ 2.93 µM)
MIC Enterococcus faecium (GC 4557) ([1]; Enterococcus faecium (GC 4557)): 2 µg/mL (≈ 1.47 µM)
MIC Enterococcus faecalis (ATCC 29212) ([1]; strain ATCC 29212): 4 µg/mL (≈ 2.93 µM)
MIC Enterococcus faecalis (GC 2242) ([1]; strain GC 2242): 4 µg/mL (≈ 2.93 µM)
MIC Enterococcus faecium (GC 2243) ([1]; strain GC 2243): 8 µg/mL (≈ 5.87 µM)
MIC Enterococcus faecalis (GC 4552) ([1]; strain GC 4552): 4 µg/mL (≈ 2.93 µM)
MIC Enterococcus faecalis (GC 4553) ([1]; strain GC 4553): 8 µg/mL (≈ 5.87 µM)
MIC Enterococcus faecalis (GC 4554) ([1]; strain GC 4554): 4 µg/mL (≈ 2.93 µM)
MIC Enterococcus faecium (GC 4556) ([1]; strain GC 4556): 4 µg/mL (≈ 2.93 µM)
MIC Enterococcus faecium (GC 4557) ([1]; strain GC 4557): 2 µg/mL (≈ 1.47 µM)
MIC Enterococcus avium (GC 4558) ([1]; strain GC 4558): 8 µg/mL (≈ 5.87 µM)
MIC Escherichia coli (ATCC 25922) [2]: 64 µg/mL (≈ 46.9 µM)
MIC Coagulase Negative Staphylococcus (GC 4547) [3]: 1 µg/mL (≈ 0.733 µM)
MIC Coagulase Negative Staphylococcus (GC 4548) [3]: 1 µg/mL (≈ 0.733 µM)
MIC Coagulase Negative Staphylococcus (GC 4549) [3]: 1 µg/mL (≈ 0.733 µM)
MIC Coagulase Negative Staphylococcus (GC 4551) [3]: 1 µg/mL (≈ 0.733 µM)
MIC Coagulase Negative Staphylococcus (ID-3941) [3]: 1 µg/mL (≈ 0.733 µM)
MIC Staphylococcus aureus (ATCC 29213) [3]: 1 µg/mL (≈ 0.733 µM)
MIC Staphylococcus aureus (GC 1131) [3]: 2 µg/mL (≈ 1.47 µM)
MIC Staphylococcus aureus (GC 4541) [3]: 2 µg/mL (≈ 1.47 µM)
MIC Staphylococcus aureus (GC 4542) [3]: 1 µg/mL (≈ 0.733 µM)
MIC Staphylococcus aureus (GC 4544) [3]: 2 µg/mL (≈ 1.47 µM)
MIC Staphylococcus aureus (GC 4545) [3]: 1 µg/mL (≈ 0.733 µM)
MIC Staphylococcus aureus-SMITH (GC 4543) [3]: 1 µg/mL (≈ 0.733 µM)
MIC Staphylococcus aureus (GC 1131) [3, 10]: 2 µg/mL (≈ 1.47 µM)
MIC Staphylococcus aureus (ATCC 29213) ([3]; strain ATCC 29213): 1 µg/mL (≈ 0.733 µM)
MIC Staphylococcus aureus (GC 4541) ([3]; strain GC 4541): 2 µg/mL (≈ 1.47 µM)
MIC Staphylococcus aureus (GC 4542) ([3]; strain GC 4542): 1 µg/mL (≈ 0.733 µM)
MIC Staphylococcus aureus (GC 4544) ([3]; strain GC 4544): 2 µg/mL (≈ 1.47 µM)
MIC Staphylococcus aureus (GC 4545) ([3]; strain GC 4545): 1 µg/mL (≈ 0.733 µM)
MIC Coagulase Negative Staphylococcus (GC 4547) ([3]; strain GC 4547): 1 µg/mL (≈ 0.733 µM)
MIC Coagulase Negative Staphylococcus (GC 4548) ([3]; strain GC 4548): 1 µg/mL (≈ 0.733 µM)
MIC Coagulase Negative Staphylococcus (GC 4549) ([3]; strain GC 4549): 1 µg/mL (≈ 0.733 µM)
MIC Coagulase Negative Staphylococcus (GC 4551) ([3]; strain GC 4551): 1 µg/mL (≈ 0.733 µM)
MIC Coagulase Negative Staphylococcus (ID-3941) ([3]; strain ID-3941): 1 µg/mL (≈ 0.733 µM)
MIC Staphylococcus aureus-SMITH (GC 4543) ([3]; strain SMITH GC 4543): 1 µg/mL (≈ 0.733 µM)
MIC Streptococcus agalactiae (GC 4564) [4, 11]: 0.25 µg/mL (≈ 0.183 µM)
MIC Streptococcus pneumoniae (GC 4565) [4, 12]: <0.12 µg/mL
MIC Streptococcus pyogenes (ID-3187) ([4]; Streptococcus pyogenes (ID-3187)): 0.25 µg/mL (≈ 0.183 µM)
MIC Streptococcus agalactiae (GC 4564) ([4]; strain GC 4564): 0.25 µg/mL (≈ 0.183 µM)
MIC Streptococcus pneumoniae (GC 4565) ([4]; strain GC 4565): <0.12 µg/mL
MIC Streptococcus pyogenes (ID-3187) ([4]; strain ID-3187): 0.25 µg/mL (≈ 0.183 µM)
SMILES: CC(C)CC1OCC2OC(OC3C(CO)OC(Oc4ccc(CC5NC(=O)C(C(C)c6ccccc6)NC(=O)CNC(=O)C(CO)NC(=O)C(C(O)C6CNC(=N)N6C6OC(CO)C(O)C(O)C6O)NC(=O)C(C(O)C6CNC(=N)N6)NC5=O)cc4)C(O)C3O)C(O)C(O)C2O1 (stereo not drawn) [Example 107, Cyclo[glycyl-β-methylphenylalanyl-O-[4-O-[4,6-O-(3-methylbutylidene)hexopyranosyl]-hexopyranosyl]tyrosyl-3-(2-iminoimidazolidin-4-yl)seryl-3-(3-hexopyranosyl-2-iminoimidazolidin-4-yl)serylseryl]]
MIC Staphylococcus haemolyticus (GC 4546) [3]: 1 µg/mL (≈ 0.733 µM)
MIC Staphylococcus haemolyticus (GC 4546) ([3]; strain GC 4546): 1 µg/mL (≈ 0.733 µM)
